These results are taken from patent US8541670B2, “Compositions and methods for inhibiting tumor cell growth” (priority 2007, dated 2013).

Where no end group is shown, it is not given here. red fluorescent dye = not defined here

The target of experiment [1] is AKT-PKAc complex (Mus musculus, UniProt P31750). Kind of experiment: In vivo co-immunoprecipitation of AKT-PKAc complex from striatum. Further details: ZaTa could disrupt the physical complex between AKT and PKAc in vivo; from tissue; host or cells: striatum of adult C57BL/6 mouse; species or system C57BL/6 mouse. The conditions noted are these: versus vehicle-treated hemisphere. The procedure: The phenotypic consequence of disrupting the AKT-PKAc complex was also determined. ZaTa peptide was injected into the striatum of one hemisphere of the brain and DMSO, as vehicle, was injected into the other brain hemisphere of an adult C57BL/6 mouse under anesthesia. The brain was removed and dissected. Equal protein amounts from each hemisphere were subjected to immunoprecipitation by an anti-AKT antibody. […] To compare PKAc protein levels in the ZaTa- and vehicle-treated brain hemisphere lysates, western blot analysis was conducted.
Chain of AKT-PKAc complex (P31750 whole entry, one chain of several): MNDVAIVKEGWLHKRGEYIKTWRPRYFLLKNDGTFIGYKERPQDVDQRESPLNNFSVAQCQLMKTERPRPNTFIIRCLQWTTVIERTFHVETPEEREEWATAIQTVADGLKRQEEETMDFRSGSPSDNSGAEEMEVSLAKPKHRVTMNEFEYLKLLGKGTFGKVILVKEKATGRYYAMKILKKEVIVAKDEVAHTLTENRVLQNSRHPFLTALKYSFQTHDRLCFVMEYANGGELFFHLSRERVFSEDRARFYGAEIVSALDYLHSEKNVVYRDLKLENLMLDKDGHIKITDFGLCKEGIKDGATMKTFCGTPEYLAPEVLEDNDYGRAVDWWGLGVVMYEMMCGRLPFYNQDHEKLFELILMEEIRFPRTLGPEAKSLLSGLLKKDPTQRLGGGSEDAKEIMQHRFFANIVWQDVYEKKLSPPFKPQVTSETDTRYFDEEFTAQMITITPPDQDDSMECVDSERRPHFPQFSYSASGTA

Experiment [2] concerns the target T1, p70S6K (Mus musculus, UniProt Q8BSK8).
T1 construct: from tissue; host or cells: mouse brain hemisphere
Kind of experiment: In vivo selectivity, western blot of phosphorylated substrate after injection into one hemisphere. The following applies: versus DMSO hemisphere. The procedure:
(§1) To analyze in vivo selectivity, ZaTa was injected into one hemisphere and DMSO in the other hemisphere, as above, and a series of western blot analyses was preformed with phospho-specific antibodies which recognize a phosphorylated substrate or each one of the kinases that ZaTa inhibited at higher concentrations in vitro. […] Given the high functional and structural homology between p70S6K and AKT, the in vivo inhibitory effect of ZaTa on p70S6K was contemplated. Furthermore, the in vivo effect of ZaTa on the phosphorylation levels of substrates for PKA, PKC, CDKs using phospho-specific antibodies recognizing the phosphorylated consensus sites of these kinases was analyzed. In contrast to the consistent decrease in phosphorylation of AKT substrates, significant changes in the phosphorylation level of PKA, PKC and CDKs substrates was not observed after in vivo injection of ZaTa.
(§2) Phosphorylation sites for kinases analyzed herein included Ser-235/236 S6 (a substrate for p70S6K), Tyr-207 CRKL (a substrate for Abl; Zipfel, et al. (2004) supra), Ser-241 PDK1 (a substrate for PI3K), Tyr-1022/1023 JAK1 (a substrate for JAK3; Wang, et al. (2003) supra), Ser-421 Huntingtin (a substrate for SGK; Rangone, et al. (2004) supra), Tyr-783 PLC (a substrate for TrkB; Middlemas, et al. (1994) supra), and Ser-338 cRaf (a substrate for PAK3; King, et al. (1998) supra).
Background: In western blotting, separated proteins are transferred to a membrane and probed.

Experiment [3] has as its target T2, Abl (Mus musculus, UniProt P00520).
T2 construct: from tissue; host or cells: mouse brain hemisphere (striatum injection)
The experiment is described as above. The following applies: versus DMSO hemisphere. The method, then: as §1, §2

Experiment [4] has as its target T3, SGK (Homo sapiens, UniProt O00141).
T3 construct: endogenous in cells
T3 sequence (O00141 1-431): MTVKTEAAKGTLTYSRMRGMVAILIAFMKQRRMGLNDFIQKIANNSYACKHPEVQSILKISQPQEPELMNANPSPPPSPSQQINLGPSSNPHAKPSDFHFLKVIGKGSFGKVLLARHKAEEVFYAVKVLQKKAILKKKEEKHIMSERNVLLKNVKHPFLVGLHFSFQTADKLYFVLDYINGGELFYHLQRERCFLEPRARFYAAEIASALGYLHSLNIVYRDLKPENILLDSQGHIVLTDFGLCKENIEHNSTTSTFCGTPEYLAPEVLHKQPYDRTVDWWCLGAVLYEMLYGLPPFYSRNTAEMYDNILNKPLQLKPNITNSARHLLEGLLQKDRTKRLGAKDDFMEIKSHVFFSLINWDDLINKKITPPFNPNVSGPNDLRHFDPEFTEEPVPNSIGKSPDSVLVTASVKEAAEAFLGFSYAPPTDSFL
Put plainly: Cell-based kinase assay, phosphorylation of intracellular substrate (Ser-421 Huntingtin). The method, then: As a specific substrate, the phosphorylation level of GSK-3[…] at Ser-9 was also evaluated. […] The decrease was specific to the AKT phosphorylation site on GSK-3[…] at Ser-9, since a change in the phosphorylation level of GSK-3[…] at Tyr-216 or GSK-3[…] at Tyr-279 was not observed. Moreover, the in vivo reduction of the phosphorylation of AKT substrates was more obvious at the injection site, since a significant change in the phosphorylation of AKT substrates in the frontal cortex or cerebellum between the two hemispheres was not observed. […] To test the specificity/selectivity of ZaTa as the inhibitor of AKT1 versus the other major kinases, a series of in vitro kinase assays was performed at IC50 for AKT1 and at ten times higher concentrations. […]
as §2

T1 sequence (Q8BSK8 whole entry): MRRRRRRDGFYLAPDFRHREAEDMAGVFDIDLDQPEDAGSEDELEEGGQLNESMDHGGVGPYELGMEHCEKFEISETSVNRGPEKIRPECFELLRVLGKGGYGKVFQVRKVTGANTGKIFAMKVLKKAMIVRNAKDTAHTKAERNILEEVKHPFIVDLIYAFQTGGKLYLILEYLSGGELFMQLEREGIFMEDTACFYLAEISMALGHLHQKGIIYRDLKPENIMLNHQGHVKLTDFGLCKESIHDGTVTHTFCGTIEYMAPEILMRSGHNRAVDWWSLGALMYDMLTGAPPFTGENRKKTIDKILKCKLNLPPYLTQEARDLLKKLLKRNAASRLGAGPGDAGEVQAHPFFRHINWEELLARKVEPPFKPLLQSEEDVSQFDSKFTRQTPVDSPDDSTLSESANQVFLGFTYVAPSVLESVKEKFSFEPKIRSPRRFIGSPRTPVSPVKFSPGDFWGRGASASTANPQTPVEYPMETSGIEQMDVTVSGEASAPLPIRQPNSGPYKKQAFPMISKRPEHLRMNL
T2 sequence (P00520 whole entry): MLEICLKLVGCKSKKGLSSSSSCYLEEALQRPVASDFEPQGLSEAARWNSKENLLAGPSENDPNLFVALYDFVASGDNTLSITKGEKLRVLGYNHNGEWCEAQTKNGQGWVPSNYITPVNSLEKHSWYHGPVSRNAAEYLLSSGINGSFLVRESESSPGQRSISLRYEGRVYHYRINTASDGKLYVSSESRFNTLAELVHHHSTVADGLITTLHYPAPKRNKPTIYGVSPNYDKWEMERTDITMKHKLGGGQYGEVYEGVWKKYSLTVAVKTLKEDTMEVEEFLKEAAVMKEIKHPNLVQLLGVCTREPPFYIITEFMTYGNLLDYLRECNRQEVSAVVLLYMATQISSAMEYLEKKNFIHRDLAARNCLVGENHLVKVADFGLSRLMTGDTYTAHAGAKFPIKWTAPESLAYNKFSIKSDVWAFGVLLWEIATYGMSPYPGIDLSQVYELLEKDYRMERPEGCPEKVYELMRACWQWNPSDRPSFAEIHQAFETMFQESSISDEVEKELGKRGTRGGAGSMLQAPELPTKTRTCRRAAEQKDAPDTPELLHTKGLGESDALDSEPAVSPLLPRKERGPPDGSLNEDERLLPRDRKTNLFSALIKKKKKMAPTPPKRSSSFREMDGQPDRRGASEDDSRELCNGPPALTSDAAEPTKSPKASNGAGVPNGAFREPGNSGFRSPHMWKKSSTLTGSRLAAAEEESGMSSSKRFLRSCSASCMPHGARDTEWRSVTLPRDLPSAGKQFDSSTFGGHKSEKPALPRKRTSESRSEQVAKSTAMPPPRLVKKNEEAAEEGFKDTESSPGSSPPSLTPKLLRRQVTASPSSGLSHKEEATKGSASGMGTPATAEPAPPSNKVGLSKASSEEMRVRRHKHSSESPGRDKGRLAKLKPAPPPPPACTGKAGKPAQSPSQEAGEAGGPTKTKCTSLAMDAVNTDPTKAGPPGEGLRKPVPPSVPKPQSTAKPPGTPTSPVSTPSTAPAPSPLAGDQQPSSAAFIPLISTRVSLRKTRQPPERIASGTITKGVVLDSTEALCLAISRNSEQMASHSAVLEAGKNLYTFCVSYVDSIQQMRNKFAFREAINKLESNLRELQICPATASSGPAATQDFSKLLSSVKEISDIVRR

AKRVKGRTWTLCGTPEY [ZaTa]: the “amount of PKAc in physical contact with AKT, in vivo” value in experiment [1] is “dramatically reduced”. Besides, the “in vivo inhibition of p70S6K” value in experiment [2] was “potent in vivo inhibition”. In addition, the “in vivo inhibition of Abl” value in experiment [3] is recorded as “weaker in vivo inhibition”.

Regarding “labeled ZaTa: ZaTa peptide labeled with a red fluorescent dye at its N-terminus ({red fluorescent dye}-AKRVKGRTWTLCGTPEY; reading uncertain)”, the “inhibition of SGK in cells” value in experiment [4] is given as “did not cause inhibition”.
